Calls of active or inactive are those of the source.
What was measured:
[1] = system: Heart; experiment: Cardioprotective activity in Langendorff perfused Sprague-Dawley rat heart assessed as activation of Akt phosphorylation at 50 mM preperfused 15 mins before global ischemia challenge for 30 mins followed by 120 mins of reperfusion; format: functional, tissue-based
[2] = system: Heart; experiment: Cardioprotective activity in Langendorff perfused Sprague-Dawley rat heart assessed as […] of Bcl2 at 50 mM preperfused 15 mins before global ischemia challenge for 30 mins followed by 120 mins of reperfusion by Western blotting; format: functional, tissue-based
[3] = system: Heart; experiment: Cardioprotective activity in Langendorff perfused Sprague-Dawley rat heart assessed as reduction in number of cardiomycotic apoptic cells at 50 mM preperfused 15 mins before global ischemia challenge for 30 mins followed by 120 mins of reperfusion by TUNEL assay; format: functional; design: scale not given: the % may be the effect or the level left
[4] = system: Heart; experiment: Cardioprotective activity in Langendorff perfused Sprague-Dawley rat heart assessed as reduction of pro-caspase 3 activation in ischemic reperfused myocardium at 50 mM preperfused 15 mins before global ischemia challenge for 30 mins followed by 120 mins of reperfusion by Western blotting; format: functional, tissue-based
[5] = system: Heart; experiment: Cardioprotective activity in Langendorff perfused Sprague-Dawley rat heart assessed as down regulation of HO1 at 50 mM preperfused 15 mins before global ischemia challenge for 30 mins followed by 120 mins of reperfusion by Western blotting; format: functional, tissue-based
[6] = system: Heart; experiment: Cardioprotective activity in Langendorff perfused Sprague-Dawley rat heart assessed as reduction in myocardial infarction size at 50 mM preperfused 15 mins before global ischemia challenge for 30 mins followed by 120 mins of reperfusion by triphenyl tetrazolium chloride method; format: functional; design: scale not given: the % may be the effect or the level left
[7] = system: Heart; experiment: Cardioprotective activity in Langendorff perfused Sprague-Dawley rat heart assessed as prevention of cytochrom c release from cytosolic fraction at 50 mM preperfused 15 mins before global ischemia challenge for 30 mins followed by 120 mins of reperfusion by Western blotting; format: functional, tissue-based
[8] = system: Heart; experiment: Cardioprotective activity in Langendorff perfused Sprague-Dawley rat heart assessed as recovery of first derivative of left ventricular developed pressure at 50 mM preperfused 15 mins before global ischemia challenge for 30 mins followed by 120 mins of reperfusion; format: functional, tissue-based
[9] = system: Heart; experiment: Cardioprotective activity in Langendorff perfused Sprague-Dawley rat heart assessed as recovery of left ventricular developed pressure at 50 mM preperfused 15 mins before global ischemia challenge for 30 mins followed by 120 mins of reperfusion; format: functional, tissue-based
[10] = system: Heart; experiment: Cardioprotective activity in Langendorff perfused Sprague-Dawley rat heart assessed as reduction of caspase 3 activation at 50 mM preperfused 15 mins before global ischemia challenge for 30 mins followed by 120 mins of reperfusion by Western blotting; format: functional, tissue-based
[11] = system: Heart; experiment: Cardioprotective activity in Langendorff perfused Sprague-Dawley rat heart assessed as recovery of aortic pressure at 50 mM preperfused 15 mins before global ischemia challenge for 30 mins followed by 120 mins of reperfusion; format: functional, tissue-based

Measured: Activity

C/C=C/C=C/C=C/C(=O)[O-].[K+]
13.6%: [3]
15%: [6]
active: all other assays above

C/C=C/C=C/C=C/C=O
16%: [6]
15%: [3]
active: all other assays above
